By IC50 is commonly meant the concentration at which inhibition is half-maximal. The Kd is the equilibrium constant for the complex coming apart.

Each structure is given as a SMILES string. Where two headings read alike, the source gives them in different places.

Assay [1] concerns the target T1, Tdp1 (Homo sapiens, UniProt Q9NUW8).
T1 construct: inferred from pET 16B vector and Ni-chelating resin; made in house; host or cells: Escherichia coli BL21(DE3)
Briefly: Real-time oligonucleotide biosensor-based Tdp1 inhibition assay. In kind it is biochemical. As to the method: The inhibition potency of our synthesised compounds against Tdp1 was evaluated by using a real-time oligonucleotide biosensor-based assay. In this assay, Tdp1 catalyses the removal of fluorophore quenchers from the 3′-end of a modified DNA substrate. […] Hexadecameric oligonucleotide was selected as a Tdp1 substrate, as it contains 5(6)-carboxyfluorescein (FAM) at the 5′-end and fluorophore quencher BHQ1 (Black Hole Quencher-1) at the 3′-end. This approach was used to determine the inhibitory properties of all the chromenes.
The pET 16B-Tdp1 was kindly provided by Dr. K.W. Caldecott (University of Sussex, United Kingdom). Recombinant Tdp1 was expressed in Escherichia coli BL21(DE3) and was purified by chromatography on Ni-chelating resin and phosphocellulose P11, as described in [29].
Real-time Tdp1 activity measurements were carried out as described in [9]. In brief, Tdp1-biosensor (50 nM) was incubated in a buffer that contains 50 mM Tris-HCl pH 8.0, 50 mM NaCl, and 7 mM β-mercaptoethanol (200 μL). The mixture was then supplemented with purified Tdp1 (1.3 nM) and various concentrations of the inhibitor. Fluorescence measurements (Ex485/Em520 nm) were carried out during the linear phase of reaction (from 0 to 8 min) every 55 s. The reactions were incubated at a constant temperature of 26 °C using a POLARstar OPTIMA fluorimeter (BMG LABTECH). The influence of the compounds was evaluated by comparing the fluorescence increase rate in their presence to that of 1.5% DMSO control wells. The data were imported into the MARS Data Analysis 2.0 program (BMG LABTECH), and IC50 values were calculated by non-linear curve fitting.

Assay [2] has as its target T2, human Tdp1 (residues 149-608) (Homo sapiens, UniProt Q9NUW8).
T2 construct: human Tdp1 (residues 149-608); made in house; host or cells: Escherichia coli BL21(DE3)
The experiment in a line: Intrinsic protein fluorescence-based Tdp1 binding assay. The following applies: supplementary figure legends; Tdp1 10 μM, 20 mM Tris, 250 mM NaCl, pH 8, triplicate. As to the method:
In addition to the inhibition assay, the binding of our compounds to Tdp1 was also evaluated. An intrinsic protein fluorescence-based assay, which we have previously applied to study the binding of esters combining monoterpenoid and adamantane fragments, was applied. In agreement with the inhibition data, all our compounds were relatively strong binders to Tdp1, with dissociation constants (KD) in the low μM region (Table 1 and Supplementary Figures S1–S7). […] This is possibly due to the large hydrophobic surface of Tdp1. The slight discrepancy between the measured KD and IC50 values is likely due to these non-specific binding events.
Synthetic DNA encoding human Tdp1 (residues 149-608 [2]) was cloned into pET-28a(+) (GenScript), which was then transformed into Escherichia coli BL21(DE3) for recombinant protein production. Protein production was induced with 1 mM IPTG at 28 °C with overnight incubation. Tdp1 was purified using affinity and size exclusion chromatography. Fluorescence was measured using a PerkinElmer EnSpire Multimode Reader. Tdp1 concentration was 10 μM and compound concentrations were 1 μM, 2.5 μM, 5 μM, 10 μM, 15 μM, 20 μM, 30 μM, 50 μM, 100 μM, 200 μM, 350 μM, 500 μM, and 750 μM. Buffer was 20 mM Tris and 250 mM NaCl (pH 8). Excitation wavelength was 280 nm and intrinsic fluorescence was measured between 300 and 450 nm. Control experiments with Tdp1 or compound on its own were also conducted. Background fluorescence arising from the compounds was subtracted from the final spectrum. The total volume per well was 30 μL. Dissociation constant (KD) values were calculated using the following formula (1), which takes non-specific binding into account. I = Imax ×[LT]/KD+[LT] +Ns[LT]
I indicates changes in fluorescence intensity from the titrations, Imax indicates the maximum fluorescence intensity change, [LT] is the titrated ligand concentration, and Ns is the non-specific term. Non-linear curve fitting was conducted using SigmaPlot 13.0 (Systat Software, San Jose, CA, USA). Experiments were conducted in triplicate and the errors shown are standard derivations.

For assay [3], the target named is T1, Tdp1. The following applies: Figure 1; cited from earlier work.

T2 sequence (Q9NUW8 149-608): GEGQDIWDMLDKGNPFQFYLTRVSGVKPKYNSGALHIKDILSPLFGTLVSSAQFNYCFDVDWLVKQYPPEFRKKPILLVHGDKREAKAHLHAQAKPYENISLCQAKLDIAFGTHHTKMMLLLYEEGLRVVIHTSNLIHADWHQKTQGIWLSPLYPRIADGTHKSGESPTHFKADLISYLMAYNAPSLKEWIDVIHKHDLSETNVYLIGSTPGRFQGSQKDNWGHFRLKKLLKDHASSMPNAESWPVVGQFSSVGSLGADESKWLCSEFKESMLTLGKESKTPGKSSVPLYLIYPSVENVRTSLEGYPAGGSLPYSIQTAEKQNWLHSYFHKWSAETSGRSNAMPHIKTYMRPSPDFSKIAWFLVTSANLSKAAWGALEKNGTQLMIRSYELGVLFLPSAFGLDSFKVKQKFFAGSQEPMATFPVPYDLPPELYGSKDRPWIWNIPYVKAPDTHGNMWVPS
T1 sequence (Q9NUW8 whole entry): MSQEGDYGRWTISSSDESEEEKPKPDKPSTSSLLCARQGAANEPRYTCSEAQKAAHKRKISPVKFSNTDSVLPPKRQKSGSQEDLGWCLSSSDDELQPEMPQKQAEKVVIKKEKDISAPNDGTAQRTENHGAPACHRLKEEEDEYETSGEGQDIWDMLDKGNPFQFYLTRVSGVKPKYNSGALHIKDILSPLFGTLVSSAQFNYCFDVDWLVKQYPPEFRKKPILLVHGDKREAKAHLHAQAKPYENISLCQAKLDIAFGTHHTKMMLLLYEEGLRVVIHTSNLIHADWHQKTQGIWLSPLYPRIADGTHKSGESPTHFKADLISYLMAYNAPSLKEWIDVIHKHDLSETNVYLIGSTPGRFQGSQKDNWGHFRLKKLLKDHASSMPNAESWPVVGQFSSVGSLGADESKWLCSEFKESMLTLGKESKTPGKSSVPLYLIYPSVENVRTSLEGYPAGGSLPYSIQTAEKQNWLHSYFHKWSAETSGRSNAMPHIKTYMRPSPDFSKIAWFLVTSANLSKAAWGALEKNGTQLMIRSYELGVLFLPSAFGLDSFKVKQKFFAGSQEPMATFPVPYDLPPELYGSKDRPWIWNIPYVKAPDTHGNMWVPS

Regarding `C[C@@H]1CC[C@@H]2[C@@H](C1)O[C@@H](c1ccc([N+](=O)[O-])s1)C[C@@]2(C)O` [(4R)-8, (2R,4aR,7R,8aS)-4,7-Dimethyl-2-(5-nitrothiophen-2-yl)octahydro-2H-chromen-4-ols], the concentration for half-maximal inhibition (IC50) at Tdp1 [1] (Table 1, (4R) diastereomer) is above 15 µM; against Tdp1 [1] (Table 2), above 15 µM. The compound also came in with a Kd in assay [2] of 23.3 ± 7.4 µM.
With `C[C@@H]1CC[C@@H]2[C@@H](C1)O[C@@H](c1ccc(NC(=O)C(F)(F)F)s1)C[C@@]2(C)O` [(4R)-11, 2,2,2-Trifluoro-N-(5-((2R,4R,4aR,7R,8aR)-4-hydroxy-4,7-dimethyloctahydro-2H-chromen-2-yl)thiophen-2-yl)acetamide], the midpoint of inhibition at Tdp1 [1] (Table 1, (4R) diastereomer), the IC50, lay at 4 ± 0.4 µM. This compound yielded a Kd in assay [2] of 19.8 ± 2.4 µM.
Consider `C[C@@H]1CC[C@@H]2[C@H](C1)O[C@@H](c1ccc(N)s1)C[C@]2(C)O` [(4S)-9, (2R,4S,4aR,7R,8aS)-4,7-dimethyl-2-(5-aminothiophen-2-yl)octahydro-2H-chromen-4-ol], for which the IC50 was above 15 µM against Tdp1 [1] (Table 1, (4S) diastereomer) and above 15 µM on Tdp1 [1] (Table 2).
On to `C[C@@H]1CC[C@@H]2[C@@H](C1)O[C@@H](c1ccc([N+](=O)[O-])s1)C[C@]2(C)O` [(4S)-8, (2R,4aR,7R,8aS)-4,7-Dimethyl-2-(5-nitrothiophen-2-yl)octahydro-2H-chromen-4-ols], for which the IC50 against Tdp1 [1] (Table 1, (4S) diastereomer) is above 15 µM; against Tdp1 [1] (Table 2) it was above 15 µM. In assay [2], the Kd came out at 30.6 ± 9.33 µM.
Turning to `C[C@@H]1CC[C@@H]2[C@H](C1)O[C@@H](c1ccc(NC(=O)C34CC5CC(CC(C5)C3)C4)s1)C[C@]2(C)O` [(4S)-13, N-(5-((2R,4S,4aR,7R,8aS)-4-Hydroxy-4,7-dimethyloctahydro-2H-chromen-2-yl)thiophen-2-yl)adamantane-1-carboxamide], at Tdp1 [1] (Table 1, (4S) diastereomer), the IC50 was 1.24 ± 0.02 µM. In addition, binding in assay [2] was put at a Kd of 17.9 ± 3.4 µM.
The like results for `C[C@@H]1CC[C@@H]2[C@@H](C1)O[C@@H](c1ccc(NC(=O)c3ccccc3)s1)C[C@]2(C)O` [(4S)-12, N-(5-((2R,4S,4aR,7R,8aR)-4-Hydroxy-4,7-dimethyloctahydro-2H-chromen-2-yl)thiophen-2-yl)benzamide] were, in that order, 5 ± 1.5 µM and 24.5 ± 5.7 µM.
In the case of `C[C@@H]1CC[C@@H]2[C@H](C1)O[C@@H](c1ccc(N)s1)C[C@@]2(C)O` [(4R)-9, (2R,4R,4aR,7R,8aS)-4,7-Dimethyl-2-(5-aminothiophen-2-yl)octahydro-2H-chromen-4-ol], the IC50 against Tdp1 [1] (Table 1, (4R) diastereomer) was above 15 µM; against Tdp1 [1] (Table 2), above 15 µM.
As to `CC1(C)[C@H]2CC=C(COc3ccc4c5c(c(=O)oc4c3)CCC5)[C@@H]1C2` [Compound 3], the IC50 at Tdp1 [3] was 0.675 µM.
Turning to `O=c1cccc([C@H]2[C@H](c3ccc(O)cc3)[C@H](c3cccc(=O)o3)[C@H]2c2ccc(O)cc2)o1` [Compound 2, achyrodimer F], the IC50 at Tdp1 [3] was 1 µM.
Regarding `C[C@@H]1CC[C@@H]2[C@@H](C1)O[C@@H](c1ccc(NC(=O)c3ccccc3)s1)C[C@@]2(C)O` [(4R)-12, N-(5-((2R,4R,4aR,7R,8aR)-4-Hydroxy-4,7-dimethyloctahydro-2H-chromen-2-yl)thiophen-2-yl)benzamide], at Tdp1 [1] (Table 1, (4R) diastereomer), half-maximal inhibition (IC50) was put at 3.3 ± 0.2 µM.
In turn, `C[C@@H]1CC[C@@H]2[C@H](C1)O[C@@H](c1ccc(NC(=O)C34CC5CC(CC(C5)C3)C4)s1)C[C@@]2(C)O` [(4R)-13, N-(5-((2R,4R,4aR,7R,8aS)-4-Hydroxy-4,7-dimethyloctahydro-2H-chromen-2-yl)thiophen-2-yl)adamantane-1-carboxamide] showed an IC50 against Tdp1 [1] (Table 1, (4R) diastereomer) of 2.8 ± 0.6 µM. The affinity in assay [2], expressed as Kd, was 12.4 ± 7.5 µM.
As to `CC(=O)Nc1ccc([C@H]2C[C@](C)(O)[C@@H]3CC[C@@H](C)C[C@H]3O2)s1` [(4S)-10, N-(5-((2R,4S,4aR,7R,8aR)-4-Hydroxy-4,7-dimethyloctahydro-2H-chromen-2-yl)thiophen-2-yl)acetamide], on Tdp1 [1] (Table 1, (4S) diastereomer), the IC50 turned out to be 5.8 ± 3 µM.
As for `CC(=O)Nc1ccc([C@H]2C[C@@](C)(O)[C@@H]3CC[C@@H](C)C[C@H]3O2)s1` [(4R)-10, N-(5-((2R,4R,4aR,7R,8aR)-4-Hydroxy-4,7-dimethyloctahydro-2H-chromen-2-yl)thiophen-2-yl)acetamide], the IC50 on Tdp1 [1] (Table 1, (4R) diastereomer) came out at 2.9 ± 0.8 µM.
Compound `C[C@@H]1CC[C@@H]2[C@@H](C1)O[C@@H](c1ccc(NC(=O)C(F)(F)F)s1)C[C@]2(C)O` [(4S)-11, 2,2,2-Trifluoro-N-(5-((2R,4S,4aR,7R,8aR)-4-hydroxy-4,7-dimethyloctahydro-2H-chromen-2-yl)thiophen-2-yl)acetamide] came in with an IC50 at Tdp1 [1] (Table 1, (4S) diastereomer) of 1.4 ± 0.3 µM. Further, in assay [2], the Kd turned out to be 2 ± 1.2 µM.

The values are drawn from PMC6222798, “A Novel Class of Tyrosyl-DNA Phosphodiesterase 1 Inhibitors That Contains the Octahydro-2H-chromen-4-ol Scaffold” (Molecules : A Journal of Synthetic Chemistry and Natural …, 2018).
